Reference: ChEMBL document CHEMBL1127918, “The role of peptide bond in chemotactic for-met-leu-phe-ome focused by depsipeptide analogs” (1994)
Where a SMILES comes first, the peptide text is derived from it. [ ]: non-standard residue; d: D form. The star is where a group is joined. PhLac = O=C(O)[C@@H](O)Cc1ccccc1; NHBn = c1ccc(CN*)cc1; For = O=C*

How the values were obtained:
Type in all cases: functional
[1] = species on record: Homo sapiens; test: (§1) Superoxide anion release expressed as n moles of superoxide anion/2E6 neutrophils/5 min
[2] = species on record: Homo sapiens; test: as §1; remark: listed apart in the source
[3] = species on record: Homo sapiens; test: (§2) Chemotactic activity was expressed as percentage of random locomotion
[4] = species on record: Homo sapiens; test: lysozyme release expressed as percentage of total enzyme content released by 0.1% Triton X-100
[5] = species on record: Homo sapiens; test: as §2; remark: listed apart in the source
[6] = species on record: Homo sapiens; test: Chemotactic activity was expressed as percentage of random locomotion of human neutrophils
[7] = species on record: Homo sapiens; test: as §1; remark: listed apart in the source
[8] = species on record: Homo sapiens; test: as §2; remark: listed apart in the source
[9] = species on record: Homo sapiens; test: Chemotactic activity was expressed as percentage of random locomotion human neutrophils

Compound | Superoxide anion release [1] | Superoxide anion release [2] | Chemotactic activity (% of random locomotion) [3] | Log [-5] [4] | Log [-6] [4] | Log [-7] [4] | Log [-8] [4] | Chemotactic activity (% of random locomotion) [5] | chemotactic activity (% of random locomotion) at 10^-8 M [5] | Chemotactic activity at 10^-10 M (% of random locomotion) [6] | Log [-9] [6] | Superoxide anion release [7] | Superoxide anion release at 10^-8 M [7] | Chemotactic activity (% of random locomotion) [8] | Log [-9] [9]
COC(=O)[C@H](Cc1ccccc1)NC(=O)[C@H](CC(C)C)NC(=O)[C@H](CCSC)NC=O | 37 | 43 | 36 | 62 | 67 | 59 | 54 | 85 | 105 | 105 | 115 | 44 | 7 | 62 | 
COC(=O)[C@H](Cc1ccccc1)NC(=O)[C@H](CC(C)C)OC(=O)[C@H](CCSC)NC=O | 0 | 0 | 10 | 10 | 12 | 10 | 11 | 13 | 8 | 0 |  | 0 | 0 | 9 | 11
COC(=O)[C@H](Cc1ccccc1)NC(=O)C(C)(N)COC(=O)[C@H](CCSC)NC=O (stereo partly specified) | 0 | 0 | 4 | 15 | 13 | 11 | 15 | 14 | 14 | 10 | 9 | 0 | 0 | 7 | 
CSCC[C@H](NC=O)C(=O)N[C@@H](CC(C)C)C(=O)O[C@@H](Cc1ccccc1)C(=O)NCc1ccccc1 (For-Met-Leu-[PhLac]-NHBn) | 32 | 24 | 20 | 40 | 38 | 35 | 24 | 51 | 51 | 62 | 54 | 14 | 8 | 55 | 
